Patent US12122760B2, “Compound, composition, and use thereof in preparation of drug” (CHANGSHA ZEDA MEDICAL TECH. CO., LTD, priority 2019, dated 2024)

Legend:
[1] = molecular target: T1, AR-LBD (GST) (Rattus norvegicus, UniProt P15207); assay: PolarScreen Androgen Receptor (AR) Competitor Assay, binding experiment of the antagonist and AR; conditions: fluorescence polarization, incubated 6 hours, FIG. 1; read-out: IC50 of the drug and AR-LBD binding
T1 construct: purchased Life technologies company, USA
T1 sequence (P15207 651-882 limits assumed): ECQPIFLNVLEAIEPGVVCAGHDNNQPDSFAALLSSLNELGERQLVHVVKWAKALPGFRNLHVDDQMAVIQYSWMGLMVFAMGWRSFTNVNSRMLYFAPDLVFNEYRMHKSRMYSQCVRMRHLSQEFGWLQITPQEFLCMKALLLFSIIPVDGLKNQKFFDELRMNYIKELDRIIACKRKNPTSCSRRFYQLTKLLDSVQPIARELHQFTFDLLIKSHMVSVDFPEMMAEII
Excerpt: PolarScreen™ Androgen Receptor (AR) Competitor Assay, Green kit (Life technologies company, USA) is used to test the affinity of the antagonist to AR-LBD (GST). The mechanism of the experiment is that the AR-LBD is combined with a small molecule fluormone tracer (Fluormone Tracer), and an antagonist added can competitively bind with AR-LBD so as to replace the fluormone tracer, and the replaced fluormone tracer […], and the value of the fluorescence polarization is inversely proportional to the number of the replaced tracers.
A specific process is as follows: the drug is dissolved into 500 uM by using DMSO, and then diluted to 244 nM by double dilution concentration gradients in a 96-well plate. A 10 uL of a reaction system AR-LBD+Tracer is configured in a 384-well plate and 10 uL of the drug solution is added. The positive control is 10 uL of AR-LBD+Tracer with 10 uL of DHT added. The 384-well plate is wrapped by tin foil and incubated for 6 hours in the dark. The fluorescence polarization value is read on a multi-function microplate reader. Graphpad Prism software is used to draw a drug concentration as an abscissa, and the fluorescence polarization value is used as an ordinate for drawing a curve. […] Herein, the DHT, MDV3100, and ARN509 are positive controls.

[2] = molecular target: T2, androgen receptor (AR) (Homo sapiens, UniProt P10275); assay: Luciferase reporter gene experiment (MMTV-LUC + pSV-AR in 293T cells); assay type: cell-based; conditions: 10 nM DHT, FIG. 2
T2 construct: expressed in transfected cells; host or cells: 293T cells
T2 sequence (P10275 1-920): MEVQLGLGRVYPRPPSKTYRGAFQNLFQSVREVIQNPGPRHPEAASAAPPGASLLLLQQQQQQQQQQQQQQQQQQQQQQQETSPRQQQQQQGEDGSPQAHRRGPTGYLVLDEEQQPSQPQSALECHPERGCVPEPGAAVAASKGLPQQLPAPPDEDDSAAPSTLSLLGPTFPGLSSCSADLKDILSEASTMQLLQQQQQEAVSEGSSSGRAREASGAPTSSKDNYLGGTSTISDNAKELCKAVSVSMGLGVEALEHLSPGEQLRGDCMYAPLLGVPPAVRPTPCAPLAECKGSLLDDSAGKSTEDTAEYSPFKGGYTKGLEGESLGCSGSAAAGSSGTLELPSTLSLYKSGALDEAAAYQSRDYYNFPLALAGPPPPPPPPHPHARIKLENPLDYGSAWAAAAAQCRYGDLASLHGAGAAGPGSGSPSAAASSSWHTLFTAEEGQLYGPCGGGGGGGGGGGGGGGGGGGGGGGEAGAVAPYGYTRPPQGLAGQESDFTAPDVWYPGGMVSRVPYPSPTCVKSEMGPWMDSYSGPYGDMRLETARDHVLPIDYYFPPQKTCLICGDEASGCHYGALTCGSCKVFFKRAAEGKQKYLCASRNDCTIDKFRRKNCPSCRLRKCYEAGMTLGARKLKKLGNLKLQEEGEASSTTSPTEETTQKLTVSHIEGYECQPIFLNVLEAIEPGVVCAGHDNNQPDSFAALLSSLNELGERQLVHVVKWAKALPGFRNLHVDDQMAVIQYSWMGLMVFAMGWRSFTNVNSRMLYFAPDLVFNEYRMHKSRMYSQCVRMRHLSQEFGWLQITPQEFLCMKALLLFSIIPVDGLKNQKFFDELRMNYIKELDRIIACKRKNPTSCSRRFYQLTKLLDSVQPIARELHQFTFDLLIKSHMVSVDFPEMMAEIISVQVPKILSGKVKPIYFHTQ
Protocol: 293T cells are cultured in a 96-well plate. AR plasmids and luciferase genes with AR target promoters are co-transfected in the 293T cells. AR activates the target promoters to express luciferase, and the expression level of the luciferase is directly proportional to AR activation. Adding DHT to the cells can activate AR and express the luciferase, thus enhancing fluorescence signal detection. By detecting the fluorescent signal, it can be examined whether an added drug has AR antagonist activity.
The luciferase reporter gene plasmid MMTV-LUC containing the androgen receptor (AR) target promoters and the plasmid pSV-AR expressing the androgen receptor (AR) are constructed. The 293T cells are inoculated in a 96-well plate, wherein each well containing 1×10^4 cells. The cells are incubated overnight to stick to the wall. On the second day, Lipofectamine® 3000 (Life technologies, USA) is used to transfect the plasmid into the cells. Each well is added with 180 ng of MMTV-LUC plasmid and 20 ng of pSV-AR plasmid. On the third day, each well is added with 10 nM of the DHT and the drugs of different concentrations of 1 nM, 10 nM, 100 nM, 1 uM, 10 uM, 25 uM, 50 uM respectively. The control is 10 nM of the DHT. On the fifth day, a luciferase reporter gene detection kit (Biyuntian company, China) is used to process the cells. 100 uL of cell lysate is added to the 96-well plate, and lyse for 20 min. Then centrifuging is performed at 4 degrees and 10000 g for 3 min. 50 uL of supernatant is taken and 100 uL of a luciferase detection reagent is added. After mixing, chemiluminescence is immediately detected on the multi-functional microplate reader. Graphpad Prism software is used to draw a curve by using the drug concentration as an abscissa and using drug fluorescence value/positive control fluorescence value as an ordinate. Herein MDV3100 is the positive control.

[3] = system: VCaP cells; assay: Inhibiting effect on VCaP cell proliferation (MTS); assay type: cell-based; conditions: 4 days treatment, FIG. 6; for cell proliferation inhibitory effect compared with positive control drug MDV3100: VCaP cells
Protocol: Androgen-sensitive prostate cancer cell (VCaP cells) are cultured in a 96-well plate. The VCaP cells are able to proliferate in a medium supplemented with 10 nM of the DHT. After treating the cells with the drugs for 4 days, we measure the effects of the drugs on the proliferation of the prostate cancer cells.
The VCaP cells are cultured by using 5% CSS and 1640 medium without phenol red, and inoculated in the 96-well plate. 1×10^4 cells are added to each well, and incubated overnight to make the cells stick to a wall. Different concentrations of the drugs are added on the second day. After treating the cells with the drugs for 4 days, cell viability is measured by the MTS kit (Promega, USA). To each well, 10% of an MTS reagent is added, and incubation continued for 2 hours. The absorbance value at […] is then measured by the multi-functional microplate reader. The Graphpad Prism software is used to draw a curve by using the drug concentration as an abscissa and using the absorbance value of the drug treatment/the absorbance value of the blank treatment cell as an ordinate.

[4] = system: Histone deacetylase (HDAC); assay: HDAC inhibitory activity: Kac-H3 Western Blot in VCaP cells; assay type: cell-based; conditions: 10 uM drug, 24 h, FIG. 5
Protocol: (§1) The VCap cells are cultured in the 6-well plate. After treating the VCap cells with the drugs for 24 hours, acetylation levels of the tubulin in the cytoplasm and the H3 protein in the nucleus are examined by the western blot. An experiment process is as follows:
The VCaP cells are spread in the 6-well plate. 5×10^5 cells are inoculated per well, and incubated overnight to make the cells stick to a wall. Then 10 uM of the drug is added to each well. The cells are collected after being incubated for 24 h. The EpiQuik Total Histone Extraction kit (Epigentek, USA) is used to extract the histones, and the Western Blot method is used to detect expression levels of Kac-H3 (localized cell nucleus) in the cells after adding the different drugs.

[5] = system: Histone deacetylase (HDAC); assay: HDAC inhibitory activity: Kac-tubulin Western Blot in VCaP cells; assay type: cell-based; conditions: 10 uM drug, 24 h, FIG. 4
Protocol: as §1
The VCaP cells are spread in the 6-well plate. 5×10^5 cells are inoculated per well, and incubated overnight to make the cells stick to a wall. On the second day, 10 uM of the drug is added per well. After being incubated for 24 h, the cells are collected, and lysed to extract the cell total protein. The Western Blot method is used to detect the expression levels of Kac-tubilin (localized cytoplasm) in the cells after treating with the different drugs.

| Compound | IC50 [1] | antagonist effect on the AR, antagonistic ability from high to low [2] | inhibitory effect on the VCap cell proliferation, from high to low [3] | cell proliferation inhibitory effect compared with positive control drug MDV3100 [3] | H3 acetylation in the nucleus (HDAC inhibitory activity) [4] | acetylation of the tubulin in the cytoplasm (HDAC inhibitory activity) [5] |
| --- | --- | --- | --- | --- | --- | --- |
| CC1(C)C(=O)N(c2cnc(C#N)c(C(F)(F)F)c2)C(=S)N1c1ccc(C(=O)NO)c(F)c1 [Zeta 33, 4-(3-(6-cyano-5-(trifluoromethyl)pyridin-3-yl)-5,5-dimethyl-4-oxo-2-thioimidazolidine-1-yl)-2-fluoro-N-hydroxybenzamide] | 27.5 µM | Zeta32>Zeta55>Zeta34>Zeta57>Zeta33 | Zeta55>Zeta32>Zeta33>Zeta34>Zeta57 | better than that of the positive control drug MDV3100 | – | – |
| N#Cc1ncc(N2C(=O)C3(CCC3)N(c3ccc(C(=O)NO)c(F)c3)C2=S)cc1C(F)(F)F [Zeta 57, 4-(7-(6-cyano-5-(trifluoromethyl)pyridin-3-yl)-8-oxo-6-thio-5,7-diazaspiro[3.4]octane-5-yl)-2-fluoro-N-hydroxybenzamide] | – | Zeta32>Zeta55>Zeta34>Zeta57>Zeta33 | Zeta55>Zeta32>Zeta33>Zeta34>Zeta57 | – | superior | – |
| CC1(C)C(=O)N(c2ccc(C#N)c(Cl)c2)C(=S)N1c1ccc(C(=O)NO)c(F)c1 [Zeta 34, 4-(3-(3-chloro-4-cyanophenyl)-5,5-dimethyl-4-oxo-2-thioimidazolidine-1-yl)-2-fluoro-N-hydroxybenzamide] | – | Zeta32>Zeta55>Zeta34>Zeta57>Zeta33 | Zeta55>Zeta32>Zeta33>Zeta34>Zeta57 | – | superior | – |
| CC1(C)C(=O)N(c2ccc(C#N)c(C(F)(F)F)c2)C(=S)N1c1ccc(C(=O)NO)c(F)c1 [Zeta 32, 4-(3-(4-cyano-3-(trifluoromethyl)phenyl)-5,5-dimethyl-4-oxo-2-thioimidazolidine-1-yl)-2-fluoro-N-hydroxybenzamide] | 25.1 µM | Zeta32>Zeta55>Zeta34>Zeta57>Zeta33 | Zeta55>Zeta32>Zeta33>Zeta34>Zeta57 | better than that of the positive control drug MDV3100 | superior | superior |
